In paper PMC5893282 (ACS infectious diseases, 2018):

Tests used:
[1] = system: E. coli ΔtolC PrecA-GFP SOS reporter; assay: Cell-based SOS reporter assay; details: ciprofloxacin 128 ng/mL, 2 hours, ΔtolC reporter strain
FlAsH-LexAPa with RecA* = FlAsH-LexAPa with RecA* (Pseudomonas aeruginosa, UniProt P37452); assay: Pilot screen of Microsource Spectrum library with FlAsH-LexAPa; assay type: biochemical, P. aeruginosa; details: fixed concentration of 16 μM, single endpoint
Chain of FlAsH-LexAPa with RecA* (P37452 81-204): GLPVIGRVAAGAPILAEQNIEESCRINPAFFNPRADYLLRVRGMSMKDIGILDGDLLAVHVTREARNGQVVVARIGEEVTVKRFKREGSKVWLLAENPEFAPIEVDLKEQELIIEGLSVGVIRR

## O=C(O)c1cn(C2CC2)c2cc(N3CCNCC3)c(F)cc2c1=O [ciprofloxacin]
[1]
  Increase in GFP fluorescence over the unstressed control: ~ 50 fold

## Cc1ccc(C(=O)Nc2ccc(S(=O)(=O)O)c3cc(S(=O)(=O)O)cc(S(=O)(=O)O)c23)cc1NC(=O)c1cccc(NC(=O)Nc2cccc(C(=O)Nc3cc(C(=O)Nc4ccc(S(=O)(=O)O)c5cc(S(=O)(=O)O)cc(S(=O)(=O)O)c45)ccc3C)c2)c1 [suramin]
FlAsH-LexAPa with RecA*
  Hit in pilot screen: identified in this pilot screen
